RP-LC retention time data for 81 compounds are collected here from the METLIN SMRT retention time set (Domingo-Almenara et al. 2019).

The nature of this series: gradient 5% acetonitrile 3 min, to 50% in 2 min, to 85% in 15 min, held 3 min, 100 µL/min. The conditions noted are these: column: Zorbax Extend-C18 2.1 x 50 mm; eluents: water / acetonitrile, 0.1% formic acid. The gist of the method:
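The mobile phases were water and acetonitrile, each with 0.1% formic acid, pumped at 100 μL/min through a Zorbax Extend-C18 column (2.1 × 50 mm, 1.8 μm). Pure standards were injected as mixtures of ~100 molecules and detected by a quadrupole time-of-flight mass spectrometer in positive and negative ionization mode. Retention time came from computationally picked adduct peaks, each inspected by hand.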
As for `O=C(Nc1ccc(Br)cc1)C1CCCN(c2nccnc2Sc2ccccc2)C1` (stereo unspecified), the RP-LC retention time came out at 1220 s. The value for `COc1ccc(S(=O)(=O)CCc2noc(C(=O)NCCN3CCC(C)CC3)n2)cc1` was 646 s. Regarding `O=C(NCC1CCOCC1)Nc1ccc(F)cc1`, the RP-LC retention time came out at 670 s. The value for `Cc1ccc(NC(=O)CSc2cc(N3CCCC(C)C3)ncn2)c(C)c1` (stereo unspecified) was 1100 s; that for `COc1ccc2c(=O)c(Oc3ccc(C(=O)Nc4cccnc4)cc3)coc2c1` was 605 s. The value for `CN1C(=O)c2cc(C(=O)N3CCN(c4ccccc4)CC3)nn2CC1(C)C(=O)NC1CCCCC1` (stereo unspecified) was 803 s; that for `CCN1C(=O)c2cc(S(=O)(=O)Nc3ccc(F)c(F)c3)ccc2Oc2cccnc21` was 1050 s; that for `Cc1noc(C)c1CC(=O)N1CCCC(c2nnc3n2CCN(C(=O)C2CC2)C3)C1` (stereo unspecified) was 596 s.

On to `CN1CCN(C(=O)C2(C)CC(c3ccccc3)=NO2)CC1` (stereo unspecified), for which the RP-LC retention time was determined as 608 s. The value for `O=C(c1cc(-c2ccccc2)n[nH]1)N1CCN(S(=O)(=O)c2ccc(F)cc2)CC1` was 840 s. The value for `COc1cc2c(cc1OC)[N+]([O-])=C(c1ccccc1)C2=O` was 1030 s; that for `CCOC(=O)c1ccc(N2C=C(C(=O)OC)S(=O)(=O)c3ccc(F)cc32)cc1` was 933 s. `COc1ccc(N2CC(c3nc(-c4ccc(C)cc4)no3)CC2=O)cc1Cl` (stereo unspecified) displayed an RP-LC retention time of 1050 s. The value for `Cc1ccc(NC(=O)N2CCCC(CCC(=O)NCCC3=CCCCC3)C2)cc1` (stereo unspecified) was 947 s; that for `Cc1ccc(C)c(S(=O)(=O)N2CCC3(CC2)NCCN=C3NCc2ccccc2C)c1` was 787 s; that for `O=C1C2N=NN(Cc3nc(-c4ccccc4Cl)no3)C2C(=O)N1c1ccc2c(c1)CCC2` (stereo unspecified) was 1070 s. The value for `O=C(NC1CCCCC1)c1nnc(-c2ccc(S(=O)(=O)N3CCCCC3)cc2)o1` was 1040 s; that for `COc1cc(NC(=O)C2CCCN2S(=O)(=O)c2ccc3c(c2)CC(C)N3C(C)=O)cc(OC)c1` (stereo unspecified) was 844 s. Consider `O=C(Nc1ccc(-n2cnc(C(=O)N3CCSCC3)c2)nc1)C1CC1`, for which the RP-LC retention time worked out at 657 s. As to `COC(=O)c1c(C)[nH]c(C(=O)N2CCCC(C(=O)N3CCCC3)C2)c1C` (stereo unspecified), the RP-LC retention time worked out at 663 s. In the case of `CC(C)NC(=O)N1CCC(OCc2ccccc2)C1` (stereo unspecified), the RP-LC retention time is 742 s. `Cc1cnn(Cc2nc(-c3ccc(NC(=O)c4ccc(C)s4)cc3)oc2C)c1`: the RP-LC retention time was 940 s.

On to `Cn1cnc2c(C(=O)N3CCN(C4CCCCC4)CC3)nn(-c3ccc(Cl)cc3)c2c1=O`, for which the RP-LC retention time came out at 654 s.

For the compound `Cc1ccc(NS(=O)(=O)c2cc(-c3nc(C(C)(C)C)cs3)cs2)c(F)c1`, the RP-LC retention time came out at 1260 s. The compound `CCOc1ccccc1N1C=C(C(=O)OC)S(=O)(=O)c2ccccc21` yielded an RP-LC retention time of 849 s. Compound `Cc1ccc(C(=O)NC2CCCCCC2)cc1NC(=O)C1=CSCCO1` registered an RP-LC retention time of 892 s.

Compound `O=C(Nc1ccc(OCc2nnc(-c3ccccc3)o2)cc1)c1ccoc1` displayed an RP-LC retention time of 808 s. The value for `CCCNC(=O)c1cc2sc(C)c(CN3CCCCC3)c2[nH]1` was 629 s; that for `CCn1cc(CN2CCC(C(=O)NCc3ccc(C)o3)CC2)c2ccccc21` was 690 s. Compound `CCCC(=O)Nc1ccc2c(c1)CN(C(=O)Cc1cccs1)C(C(=O)N(C)C)C2` (stereo unspecified) had an RP-LC retention time of 690 s. To `O=c1c(Br)c(-c2ccccc2)[nH]c2ccccc12` belongs 715 s; to `Cc1ccccc1NC(=O)Nc1c(-c2ccccc2)nc2ccccn12`, 661 s.

Regarding `Cn1c(=O)c(N2CCC(NC(=O)NCCc3ccccc3)CC2)nc2ccccc21`, the RP-LC retention time was 857 s. To `O=C(Nc1ccc(N2CCOCC2)cc1)C1CCN(c2cnc3nccnc3c2)CC1` belongs 610 s; to `CCCN(CC1CCOC1)S(=O)(=O)c1ccccc1C` (stereo unspecified), 904 s; to `CCc1nnc(-c2ccc3ccn(CC(=O)Nc4ccc5c(c4)OCCO5)c3c2)o1`, 811 s.

In turn, `CCc1ccc(NS(=O)(=O)c2cc(-c3cc(C(F)(F)F)on3)sc2C)cc1` registered an RP-LC retention time of 1230 s. The value for `CCOC(=O)c1c(C)[nH]c(CCC(=O)NCCN2CCN(C)CC2)c1C` was 579 s; that for `COCCCNc1c(-c2cccc(F)c2)nc2sc(C(N)=O)c(C)n12` was 741 s; that for `CC(C)C(=O)N1C[C@@H](F)C[C@H]1C(=O)N1CCc2ccccc2C1` was 683 s. As to `O=C(CSc1nnnn1-c1cccc(C(F)(F)F)c1)N1CCOCC1`, the RP-LC retention time was 733 s.

Compound `CC1CCN(S(=O)(=O)c2ccc(-c3nnc(C(=O)NCCc4ccc(Cl)cc4)o3)cc2)CC1` came in with an RP-LC retention time of 1160 s. `CCn1c(C(=O)NC2CCCC2)cc2sc(Cl)cc21` gave an RP-LC retention time of 1110 s.

`Cc1ccc(NC(=O)NCC2(N3CCOCC3)CCOC2)cc1C` (stereo unspecified) gave an RP-LC retention time of 615 s. To `Cn1nnc2c(N3CCN(S(=O)(=O)c4cccs4)CC3)ncnc21` belongs 726 s.

`COc1ccc(-c2nc3ccc(Cl)cn3c2Nc2ccc(C)cc2)cc1`: the RP-LC retention time came to 838 s. Compound `O=C(NCc1ccco1)c1scc(-c2ccc(F)cc2)c1-n1cccc1` gave an RP-LC retention time of 1110 s.

Regarding `C1CCC(NC2=NCCO2)CC1`, the RP-LC retention time worked out at 615 s. The compound `Cc1ccc(NC(=O)C2CCN(C(=O)c3ncn4c3COC(c3ccccc3)C4)CC2)cc1C` (stereo unspecified) gave an RP-LC retention time of 796 s.

On to `Cc1ccc2c(=O)c3c([nH]c2c1C)CCN(CC(=O)Nc1cccc(C#N)c1)C3`, for which the RP-LC retention time worked out at 607 s.

Compound `CCc1nnc2c(=O)n(CC(=O)NCc3ccccc3F)c3cccnc3n12` yielded an RP-LC retention time of 685 s.

`O=C(NC1CCCc2ccccc21)C1CCN(C(=O)c2cccn2-c2cccnc2)CC1` (stereo unspecified) showed an RP-LC retention time of 742 s. `CCc1noc(-c2c(S(=O)(=O)NC3CCCC3)c(C)n(C)c2C)n1` came in with an RP-LC retention time of 833 s. The value for `CCOC(=O)N1CCN(C(=O)CN2CCC(COCc3ccccc3)CC2)CC1` was 571 s.

`CC1CCN(c2cc(-n3cnc(C(=O)N(C)Cc4ccccc4)c3)ncn2)CC1` came in with an RP-LC retention time of 1050 s. As to `CCNc1nc(C)cc(N2CCN(S(=O)(=O)c3ccc(-c4csc(C)n4)s3)CC2)n1`, the RP-LC retention time amounted to 733 s.

The compound `CN1CCCn2cc(S(=O)(=O)Nc3ccc(F)c(F)c3)cc2C1=O` gave an RP-LC retention time of 690 s. To `COc1ccc(C(=O)COC(=O)c2cccs2)cc1` belongs 846 s; to `O=C(NCCCc1ccccc1)C1CCN(c2ncnc3c2oc2ccccc23)CC1`, 976 s; to `O=C(Cn1nc2c(N3CCCCCC3)nccn2c1=O)Nc1ccccc1Cl`, 708 s. Regarding `O=C(CN1C(=O)C(C(=O)N2CCCC2)Sc2ccccc21)Nc1ccc(Cl)cc1` (stereo unspecified), the RP-LC retention time is 1070 s. To `CCn1ncn2cc(S(=O)(=O)Nc3cc(C)ccc3C)cc2c1=O` belongs 937 s. In the case of `CCC1CCCCN1CCNC(=O)C1CCCN(c2cnc3nccnc3c2)C1` (stereo unspecified), the RP-LC retention time amounted to 569 s. The value for `Cc1ccc(-c2noc(CN3C(=O)COc4ccc(C(C)(C)C)cc43)n2)cc1C` was 1390 s. Take `CCn1nc(C)n2cc(S(=O)(=O)N3CCC(Cc4ccccc4)CC3)cc2c1=O`: the RP-LC retention time was 1040 s. The compound `COC(=O)N1CCC(c2ccc(OC)cc2)C1` (stereo unspecified) came in with an RP-LC retention time of 758 s. The compound `COCCCNC(=O)Cn1c(=O)c(S(=O)(=O)c2ccccc2)cc2ccccc21` showed an RP-LC retention time of 705 s. The value for `Cc1ccc(NS(=O)(=O)c2cccnc2Nc2ccc(Cl)cc2)cc1` was 1170 s; that for `COC(=O)c1cc(C)nc2c1c(=O)n(Cc1ccc(Cl)cc1)c(=O)n2C` was 1080 s; that for `Cc1noc(C)c1Cc1ccc(C(=O)NCC2Cn3cccc3C(=O)N2C)o1` (stereo unspecified) was 669 s. The value for `Cc1c(C)n(-c2ccc(Cl)cc2)c2ncn(CC(=O)N3CCCC3)c(=O)c12` was 803 s; that for `CCOc1ccc(-c2csc(Cc3nc(-c4ccc(OC)cc4)no3)n2)cc1` was 1230 s; that for `Fc1cccc(-c2nc(Cn3ccnc3)no2)c1` was 577 s. Compound `Cn1ncc(N2CCCC(C(=O)NCc3ccc(F)c(Cl)c3)C2)cc1=O` (stereo unspecified) registered an RP-LC retention time of 726 s. The value for `COc1cccc(N2N=NC3C(=O)N(c4ccccc4)C(=O)C32)c1` (stereo unspecified) was 922 s; that for `Cc1ccccc1NC(=O)NCCn1c(C(F)(F)F)nc2cccnc21` was 736 s; that for `O=C(CN1C(=O)c2cccnc2Sc2ccccc21)NCCc1c[nH]c2ccccc12` was 773 s. Compound `CCn1c(=O)c(N2CCCC(C(=O)N3CCN(c4cc(Cl)ccc4C)CC3)C2)nc2ccccc21` (stereo unspecified) registered an RP-LC retention time of 1420 s. To `CCC(=O)N1CCc2c(C(=O)O)cccc21` belongs 657 s; to `CCCNC(=O)C1CCN(c2ccc(SCC(=O)NCc3cccs3)nn2)CC1`, 602 s. The compound `COc1ccc(-c2c(C)noc2NC(C)=O)cc1S(=O)(=O)N1CCc2ccccc21` came in with an RP-LC retention time of 784 s.
